SMILES strings stand for the structures.

Data set [1] has as its target T1, S. aureus PBP4 (Staphylococcus aureus, UniProt P72355).
T1 sequence (P72355 25-431): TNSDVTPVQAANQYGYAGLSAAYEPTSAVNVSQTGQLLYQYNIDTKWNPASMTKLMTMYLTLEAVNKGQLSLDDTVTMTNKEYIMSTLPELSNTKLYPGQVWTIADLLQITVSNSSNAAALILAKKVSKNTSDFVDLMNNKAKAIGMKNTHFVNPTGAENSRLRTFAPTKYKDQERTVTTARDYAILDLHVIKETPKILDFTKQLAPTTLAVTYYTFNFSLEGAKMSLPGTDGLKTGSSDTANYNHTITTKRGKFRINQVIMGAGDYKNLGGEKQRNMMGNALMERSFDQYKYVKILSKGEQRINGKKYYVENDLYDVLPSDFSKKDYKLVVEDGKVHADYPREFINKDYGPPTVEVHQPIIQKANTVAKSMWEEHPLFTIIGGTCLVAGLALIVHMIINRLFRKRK
Briefly: In vitro real-time D,D-transpeptidation assay using Rf470 and diacetyl-L-lysine-D-alanine-D-alanine substrate. Format: biochemical. The note with it: for Effect on initial rate of fluorescence increase (PBP4 enzyme reaction): antibiotics 0.1 equiv. to the substrate; for Effect of added antibiotic on D,D-transpeptidation activity (fluorescence signal increase): antibiotic added to Rf470/substrate/PBP4 reaction. From the text:
FIG. 12A depicts an exemplary scheme for the assay procedure for in vitro D,D-transpeptidation assays using Rf470 and isolated S. aureus PBP4.
FIG. 12E depicts screening of antibiotic effect on S. aureus PBP4 activity. Kanamycin and Chloramphenicol: ribosome activity inhibitors; Piperacillin, Ampicillin, Penicillin G, Carbenicillin and Cefoxitin are β-lactam antibiotics. A 1:10 ratio of antibiotics to the substrate was used.
We took advantage of the fact that FMR-DAAs are fluorogenic probes that fluoresce upon PG incorporation to develop a continuous, spectrophotometric assay to monitor the formation of transpeptidation product without the need of quenching and purification. The components of the assay included FMR-DAA probes as the fluorescence reporter, synthetic diacetyl-L-lysine-D-alanine-D-alanine as the substrate (acyl donor) and Staphylococcus aureus PBP4 enzyme. S. aureus PBP4 is known to have D,D-transpeptidation activity responsible for the highly cross-linked PG layer in staphylococci, as well as β-lactamase activity to degrade penicillin-like antibiotics.
Rf470, the synthetic substrate and S. aureus PBP4 were incubated in a 96-well plate and the emission fluorescence was measured overtime using a plate reader (5-minute interval, 1 hour in total, FIG. 12A). […] The formation of cross-linked product was confirmed by reverse-phase HPLC and high-resolution mass spectrometry (FIG. 12C, D).
(§1) We further evaluated the utility of this assay for in vitro high-throughput screening for antibiotics. We tested various antibiotics (0.1 equiv. to the substrate) and measured the initial rate of fluorescence increase (FIG. 12E). […] To further confirm the inhibitory effect of these β-lactams toward S. aureus PBP4, we performed a Nitrocefin assay, which tests PBP's β-lactamase activity, in the presence of the antibiotics. […] We also note that this assay can be conducted in an end-point manner, providing an efficient way to test a large number of samples since only a single measurement is required per sample. End-point assays potentially enable high-throughput applications for drug screening and transpeptidation reaction studies.

In data set [2] the test system is LdtA, encoded by V. cholerae vc1268. In words: In vitro FMR-DAA assay with L,D-transpeptidase and synthetic tetrapeptide (diacyl-L-Ala-D-Glu-L-Lys-D-Ala). Type of data set: biochemical. Particulars: Rf470 + LdtA + synthetic tetrapeptide. An excerpt:
(§2) In addition to PBPs, we tested the in vitro assay in other classes of transpeptidases: L,D-transpeptidase (Ldts) and Sortases. It is known that LdtA, encoded by V. cholerae vc1268, is responsible for 3′-3′ cross-linkage formation. […] On the other hand, S. aureus Sortase A (SrtA) is responsible for anchoring surface proteins to PG through a sequence-specific transpeptidation reaction. It recognizes a conserved protein LPXTG motif, and cross-links it with PG pentaglycine in S. aureus. […] Control experiments in the absence of the substrate led to no signal change.

Data set [3] in a line: Measurement of viscosity sensitivity of FMR-DAAs in PBS-glycerol. Type of data set: physicochemical. The note with it: free probe 0.1 mM in 1×PBS containing 0-80% glycerol, pH 7.4. Here is the method:
For free FMR-DAAs measurement, FMR-DAAs (100 mM stock solution, DMSO) was diluted in PBS-glycerol solution (1×PBS containing 0%, 20%, 40%, 50%, 60% and 80% glycerol, pH 7.4) to a final concentration of 0.1 mM. The solutions were transferred into 96-well micro-plate and the fluorescence was measure at corresponding Em wavelength mentioned above using SpectraMax M2 plate reader (corresponding Ex wavelength was used). The viscosity sensitivity was calculated using the following equation, where r is viscosity of the solvents, I is the emission intensity of the FMR-DAAs, C is a constant depending on the temperature, and x is the viscosity sensitivity (Zhou el, EJOC, 2011, 4773). The Ig, 50%/Iw value represents the ratio of fluorescent intensity of the 50% glycerol sample to that of the 0% glycerol sample.

Data set [4] in a line: Quantum yield measurement (fluorescein standard). Type of data set: physicochemical. Particulars: PBS (pH 7.4) containing 50% glycerol; fluorescein as standard.
The target in data set [5] is S. aureus Sortase A (SrtA) (Staphylococcus aureus, UniProt Q2FV99). In words: In vitro FMR-DAA assay with Sortase A and synthetic pentapeptide motif (LPETG). Type of data set: biochemical.
Sequence of S. aureus Sortase A (SrtA) (Q2FV99 whole entry): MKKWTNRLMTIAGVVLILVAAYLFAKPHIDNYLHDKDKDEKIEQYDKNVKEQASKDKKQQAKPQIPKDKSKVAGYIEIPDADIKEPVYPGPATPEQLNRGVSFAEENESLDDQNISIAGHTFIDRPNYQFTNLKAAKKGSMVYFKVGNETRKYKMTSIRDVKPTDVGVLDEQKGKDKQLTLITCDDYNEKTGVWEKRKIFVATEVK
From the text: as §2

Data set [6] is described as follows: UV-Vis spectra and calibration curve of FMR-DAAs (excitation/emission maxima, absorptivity). Type of data set: physicochemical. Also noted: Absorptivity (ε): unit not given here. The note with it: for Max. λEm / Max. λEx: PBS (pH 7.4) containing 50% glycerol, scan range 350 to 800 nm; for Absorptivity (ε): PBS (pH 7.4), Beer's Law. On the procedure:
The excitation and emission wavelengths of FMR-DAAs were measured by SpectraMax M2 plate reader using disposable cuvette (polymethyl methacrylate). UV-Vis spectra of FMR-DAAs were measured by scanning within a range from 350 to 800 nm with an increment of 1 nm. The wavelength at maximum absorbance (Ex) and emission (Em) of FMR-DAAs were recorded.
For plotting calibration curves, FMR-DAAs (100 mM stock solution, DMSO) were diluted into 1×PBS (pH 7.4) and the corresponding A. absorbance of FMR-DAAs was measured as a function of concentration (0.1, 0.05, 0.025 and 0.0125 mM). The absorptivity was calculated as described by Beer's Law. The spectra of molecular rotor designs are illustrated in FIG. 7 (panels (i)-(vi)).

Data set [7] in a line: Measurement of thermal stability of FMR-DAAs. Type of data set: physicochemical. The note with it: PBS (pH 7.4), 24-hours incubation at 60° C. Here is the method: FMR-DAAs (100 mM stock solution, DMSO) was diluted with 1×PBS (pH7.4) to a final concentration of 0.05 mM. The FMR-DAAs solution was then incubated at 60° C. and kept from light exposure. […]
For data set [8], the target named is T1, S. aureus PBP4. In words: Nitrocefin assay of PBP4 β-lactamase activity in the presence of antibiotics. Type of data set: biochemical. Particulars: in the presence of the antibiotic.
From the text: FIG. 12F depicts β-lactamase activity of S. aureus PBP4 in the presence of antibiotics. Nitrocefin degradation by PBP4 results in an increase of absorbance at 500 nm, which is used to measure β-lactamase activity. Low activity stands for a strong inhibition effect of the antibiotics toward PBP4, and vice versa. Values are normalized to the “no antibiotic” sample.
as §1

For a further data set, the system named is bacterial PG. Briefly: Wash-free labeling of bacterial PG with FMR-probe-D-Lys conjugates, fluorescence microscopy. Format: cell-based. From the text: FIG. 3E depicts exemplary labeling of bacterial PG with HADA probe (panel (i)) and FMR-probe-D-Lys conjugates having the FMR probe moiety of formula (I), wherein R^1 consists of a —CN moiety (denoted as “Rot1DL” (panel (ii))) without washing prior to fluorescence. Compared to conventional FDAAs (e.g., HADA), FMR-DAAs eliminate the need to wash excess probe.
The presence of the carboxylic acid provides a site for covalent coupling of the FMR-probe to an available amino group on a D-amino acid backbone, such as D-amino-Ala or D-Lys. As FMR-probes having R^1 consist of a cyano moiety provide slight affinity for bacterial membranes, result in low levels of nonspecific labeling and some instability of the α,β-unsaturated malononitrile moiety under typical experimental conditions, such FMR-probes are less preferred for use. In such cases, FMR-probes having R^1 consisting of a carboxylic acid can prevent non-specific membrane binding and increase stability of the probe.

For the molecule `CC1(C)S[C@@H]2[C@H](NC(=O)C(C(=O)O)c3ccccc3)C(=O)N2[C@H]1C(=O)O` (some centres unmarked) [Carbenicillin], the “Effect on initial rate of fluorescence increase (PBP4 enzyme reaction)” value on S. aureus PBP4 [1] is recorded as “inhibited the enzyme reaction almost completely”.

Take `CC1(C)S[C@@H]2[C@H](NC(=O)Cc3ccccc3)C(=O)N2[C@H]1C(=O)O` [Penicillin G]: the “Effect on initial rate of fluorescence increase (PBP4 enzyme reaction)” value on S. aureus PBP4 [1] is reported as “partial inhibition”.

Take `N#C/C(=C\c1ccc(-c2ccc3c(c2)CCCN3CCC(=O)NCCCC[C@@H](N)C(=O)O)s1)C(=O)O` [Rf470, (E)-N6-(3-(6-(5-(2-carboxy-2-cyanovinyl)thiophen-2-yl)-3,4-dihydroquinolin-1(2H)-yl)propanoyl)-D-lysine]: in data set [2], the “Fluorescence signal over time with LdtA” value is given as “time-lapse increase of fluorescence signal”. In addition, the “Probe fluorescence intensity over time (D,D-transpeptidation signal)” value at S. aureus PBP4 [1] (probe + synthetic substrate + S. aureus PBP4, 96-well plate, 5-minute interval, 1 hour) is given as “increase in fluorescence intensity overtime”. Besides, the “Viscosity sensitivity (χ)” value in [3] was 0.642 ± 0.022. Besides, the “Quantum Yield (ϕ)” value in data set [4] is listed as 0.042. For the same molecule, the “Rf470 signal over time with Sortase A” value in data set [5] is recorded as “increase of Rf470 signal over time”. Moreover, in data set [6], the “Max. λEm” value worked out at 640, the “Max. λEx” value stood at 470 and the “Absorptivity (ε)” value is 33106. Besides, in data set [7], the “Thermo-stability (signal retention of absorbance vs initial value)” value is 99.4 ± 1.4%.

With `O=C(N[C@H](CO)[C@H](O)c1ccc([N+](=O)[O-])cc1)C(Cl)Cl` [Chloramphenicol], the “Effect of added antibiotic on D,D-transpeptidation activity (fluorescence signal increase)” value at S. aureus PBP4 [1] is given as “comparable to the non-treated sample”.

Take `N#CC(=Cc1ccc(-c2ccc3c(c2)CCCN3CCC(=O)O)s1)C(=O)NCCCCC(N)C(=O)O` (stereo in doubt) [Rf490, (E)-N^6-(3-(5-(1-(2-carboxyethyl)-1,2,3,4-tetrahydroquinolin-6-yl)thiophen-2-yl)-2-cyanoacryloyl)-L-lysine]: in [3], the “Viscosity sensitivity (χ)” value was 0.67 ± 0.003. Further, the “Quantum Yield (ϕ)” value in data set [4] amounted to 0.035. In data set [6], the “Red-shift in Max. λEX compared to Rf470” value is given as 20 nm, the “Max. λEm” value was 660, the “Max. λEx” value is 490 and the “Absorptivity (ε)” value was found to be 25409. The “Thermo-stability (signal retention of absorbance vs initial value)” value in data set [7] is given as 96.9 ± 9.8%.

As to `N#C/C(=C\c1ccc2c(c1)CCCN2CCC(=O)NCCCC[C@@H](N)C(=O)O)C(=O)O` [Rf420, (E)-N6-(3-(6-(2-carboxy-2-cyanovinyl)-3,4-dihydroquinolin-1(2H)-yl)propanoyl)-D-lysine], in [3], the “Viscosity sensitivity (χ)” value is reported as 0.683 ± 0.013. Further, in data set [4], the “Quantum Yield (ϕ)” value was determined as 0.012. In [6], the “Max. λEm” value is on record as 490, the “Max. λEx” value is 420 and the “Absorptivity (ε)” value was 19761. Moreover, the “Thermo-stability (signal retention of absorbance vs initial value)” value in data set [7] worked out at 99.8 ± 1.2%.

With `CO[C@@]1(NC(=O)Cc2cccs2)C(=O)N2C(C(=O)O)=C(COC(N)=O)CS[C@@H]21` [Cefoxitin], at S. aureus PBP4 [1], the “Effect of added antibiotic on D,D-transpeptidation activity (fluorescence signal increase)” value is on record as “total inhibition” and the “Effect on initial rate of fluorescence increase (PBP4 enzyme reaction)” value was “inhibited the enzyme reaction almost completely”.

Take `CCN1CCN(C(=O)N[C@@H](C(=O)N[C@@H]2C(=O)N3[C@@H]2SC(C)(C)[C@@H]3C(=O)O)c2ccccc2)C(=O)C1=O` [Piperacillin]: at S. aureus PBP4 [1], the “Effect on initial rate of fluorescence increase (PBP4 enzyme reaction)” value is “did not have a significant effect”. For the same molecule, on S. aureus PBP4 [8], the “Inhibition of PBP4 β-lactamase activity (in words)” value is reported as “did not inhibit PBP4s β-lactamase activity effectively”.

Consider `NC(CNC(=O)c1cc2ccc(O)cc2oc1=O)C(=O)O` (centres unmarked) [HADA, reference compound], for which the “Viscosity sensitivity (χ)” value in data set [3] is recorded as 0.025 ± 0.003. In data set [6], the “Max. λEm” value came out at 450, the “Max. λEx” value is 400 and the “Absorptivity (ε)” value came out at 109538. Also, the “Thermo-stability (signal retention of absorbance vs initial value)” value in data set [7] worked out at 80.0 ± 1.1%.

Turning to `N#CC(C#N)=Cc1ccc2c(c1)CCCN2CCC(=O)NCCCC[C@@H](N)C(=O)O` [Rotor No. 1, N6-(3-(6-(2,2-dicyanovinyl)-3,4-dihydroquinolin-1(2H)-yl)propanoyl)-D-lysine], the “Non-specific affinity to other cellular structures / membranes” value in the data set with bacterial PG (FIG. 3G, no washing) is “low non-specific affinity to other cellular structures”. Also, the “Incorporation into PG sacculi” value in the data set on bacterial PG (labeled bacterial PG, FIG. 3F) was “covalently incorporated into PG sacculi”.

Regarding `CC1(C)S[C@@H]2[C@H](NC(=O)[C@H](N)c3ccccc3)C(=O)N2[C@H]1C(=O)O` [Ampicillin], the “Effect on initial rate of fluorescence increase (PBP4 enzyme reaction)” value on S. aureus PBP4 [1] is recorded as “partial inhibition”. Further, the “Inhibition of PBP4 β-lactamase activity (in words)” value at S. aureus PBP4 [8] is “did not inhibit PBP4s β-lactamase activity effectively”.
